In patent US20250073234A1, “COMBINATION THERAPIES INCLUDING PARP1 INHIBITORS” (Cornell University, priority 2022, published 2025):
Entries after “also recorded” stand apart in the source; their conditions may differ.

Key:
[1] = tested on: p62 (SQSTM1) in WPMY-1 cells; assay: p62/SQSTM1 expression in WPMY-1 stromal fibroblasts (immunoblot, qPCR); format: cell-based, human
Text: To knock out PARP-1 in WPMY-1 cells, single-guide RNA sequences targeting PARP-1 exon2 were purchased from Synthego and transduced into WPMY-1 cells with recombinant Streptococcus pyogenes Cas9 protein (Truecut Cas9 Protein v2, Thermo), using the Neon Transfection System 1 (Invitrogen) following the manufacturer's protocol and single clones were expanded and screened by protein immunoblotting. To perform AP1-A binding site editing in the SQSTM promoter in WPMY-1 cells, single-guide RNA sequences targeting the human AP1-A binding site (Synthego) was transduced into cells with a Cas9 protein and a single-stranded donor oligonucleotide (ssODN, IDT) using Neon Electroporation System. Single clones were expanded and screened for AP1-A editing by Sanger sequencing. A point mutation to disrupt the API enhancer element in the p62 promoter was introduced by Site Directed Mutagenesis (Stratagene). Knockdown of MCT1, MCT4, FOS, PARP1, PARP2, CD38, ATG5, and SIRT1-7 genes in WPMY-1 cells were achieved by siRNA transfection using Lipofectamine RNAiMAX Transfection Reagent (Invitrogen). Transient overexpression was achieved by transfection using X-tremeGENE HP transfection reagent (Roche). Transfected cells were examined 48 hours after transfection. Establishing stably GFP or RFP expressing cells was achieved by lentivirus-mediated transduction. Lentivirus were produced in HEK293T cells using X-tremeGENE HP transfection reagent (Roche). Virus-containing supernatants were collected 48, 72 and 96 hours after transfection, filtered to eliminate cells, and supplemented with 8 μg/ml polybrene. Cells were infected with three rounds of viral supernatants and selected with puromycin (3 μg/ml). For autophagy or proteasome inhibition, WPMY-1 cells were treated for 12 hours with 100 nM bafilomycin Al or 12 hours with 20 μM of MG132, respectively, or vehicle (DMSO). […] For MCT1 inhibition, WPMY-1 cells were treated for 48 hours with 10 μM of AZD3965. For cJUN inhibition, WPMY-1 cells were treated for 48 hours with 10 μM of SP600125. For calpains and caspases inhibition, WPMY-1 cells were treated for 48 hours with 1-20 μM of Calpeptin (Tocris) or z-VAD-FMK (Tocris), respectively. For protein synthesis inhibition, WPMY-1 cells were treated with 50 μg/ml of cycloheximide (Sigma). Conditioned media (CM) was generated by collecting supernatant on day 3. CM was transferred to a 15 ml BD Falcon tube and centrifuged at 1300 rpm for 10 minutes. The supernatant was sterile filtered using a […] (Millex-GV) with a 10 ml syringe barrel. The samples were stored at […] for future experiments. Fractionation of the CM was achieved using Amicon Ultra centrifugal filters (3KUltracel, Millipore). The supernatant was centrifuged at 4000 rpm for 1 hour. The supernatant fraction that was >3 kDa remained above the filter and that which was <3 kDa passed through to the lower chamber. The >3-kDa fraction was resuspended in DMEM to the pre-filtration volume.

PC3 cells = assay: Click-iT EdU proliferation of PC3 cells treated with CM from WPMY-1 cells; format: cell-based, human; conditions: Olaparib 10 μM + PEGPH20 2.5 μg/ml or CM incubation with Galunisertib 10 μM
Method: WPMY-1 cells were cultured in DMEN containing 10% FBS (basal conditions) or 10% charcoal stripped FBS (ADT conditions), then the cells were treated with vehicle (DMSO), Olaparib 10 μM, Olaparib 10 μM+PEGPH20 2.5 μg/ml for 96 hours, refreshing media and stimuli at 48 hours, conditioned media (CM) was generated by collecting supernatant on day 4. PC3 cells were seeded in a black-walled well (Thermo Fisher) and serum starved overnight. CM from WPMY-1 cells was added to PC3 for 24 h. PC3 were exposed to EdU incorporation for the last 2 hours. Proliferating cells were detected using Click-iT EdU Alexa fluor 488 (Thermo Fisher) following the manufacturer's instructions. Pictures were taken using EVOS M5000 Imaging System and EdU positive were measured using Fiji (Schindelin et al., 2012).

[2] = tested on: human ovarian cancer PDXs; conditions: Niraparib vs vehicle, GSE163854
Text: (§1) For RNA-Seq, sequencing Fastq files were uploaded to BaseSpace and processed with RNASeq Alignment App (Illumina) to obtain raw reads counts for each gene. For 3′RNA-Seq, read data was processed with the BlueBee Genomics Platform (BlueBee, San Mateo, CA). GenePattern (https://genepattern.broadinstitute.org/gp/pages/index.jsf) was used to collapse gene matrix files (CollapseDataset module) or to assess the statistical significance of differential gene expression (ComparativeMarkerSelection module for microarray data and DESeq2 module for RNA-seq data). […] For ATACSeq, FASTQ files from ATAC-seq reads were aligned to UCSC mm10 with Bowtie2 (bowtie2-very-sensitive-x mm10-1 FILE_merged_R1.fastq-2 FILE_merged_R2.fastq-X 1000-p 12 | samtools view-u-| samtools sort->FILE.bam). […] For motif enrichment analysis in the differential peaks between vehicle and Olaparib-treated cells, p-values were calculated using findMotifsGenome.pl with—size given,—len 6,8,10,12 and—mask program of HOMER v4.10.3. […] For ATACSeq, FASTQ files from ATAC-seq reads were aligned to UCSC mm10 with Bowtie2 (bowtie2-very-sensitive-x mm10-1 FILE_merged_R1.fastq-2 FILE_merged_R2.fastq-X 1000-p 12 | samtools view-u-I samtools sort->FILE.bam). […] For scRNA-seq, raw sequence reads were quality-checked using FastQC software. […]

WPMY-1 cells = assay: qPCR of CAF / stromal activation markers in WPMY-1 cells; format: cell-based, human; conditions: co-treatment with Olaparib
Text: To knock out PARP-1 in WPMY-1 cells, single-guide RNA sequences targeting PARP-1 exon2 were purchased from Synthego and transduced into WPMY-1 cells with recombinant Streptococcus pyogenes Cas9 protein (Truecut Cas9 Protein v2, Thermo), using the Neon Transfection System 1 (Invitrogen) following the manufacturer's protocol and single clones were expanded and screened by protein immunoblotting. To perform AP1-A binding site editing in the SQSTM promoter in WPMY-1 cells, single-guide RNA sequences targeting the human AP1-A binding site (Synthego) was transduced into cells with a Cas9 protein and a single-stranded donor oligonucleotide (ssODN, IDT) using Neon Electroporation System. Single clones were expanded and screened for AP1-A editing by Sanger sequencing. A point mutation to disrupt the API enhancer element in the p62 promoter was introduced by Site Directed Mutagenesis (Stratagene). Knockdown of MCT1, MCT4, FOS, PARP1, PARP2, CD38, ATG5, and SIRT1-7 genes in WPMY-1 cells were achieved by siRNA transfection using Lipofectamine RNAiMAX Transfection Reagent (Invitrogen). Transient overexpression was achieved by transfection using X-tremeGENE HP transfection reagent (Roche). Transfected cells were examined 48 hours after transfection. Establishing stably GFP or RFP expressing cells was achieved by lentivirus-mediated transduction. Lentivirus were produced in HEK293T cells using X-tremeGENE HP transfection reagent (Roche). Virus-containing supernatants were collected 48, 72 and 96 hours after transfection, filtered to eliminate cells, and supplemented with 8 μg/ml polybrene. Cells were infected with three rounds of viral supernatants and selected with puromycin (3 μg/ml). For autophagy or proteasome inhibition, WPMY-1 cells were treated for 12 hours with 100 nM bafilomycin Al or 12 hours with 20 μM of MG132, respectively, or vehicle (DMSO). For PARP1 inhibition, WPMY-1 cells were treated with PJ34 (2 days) or Olaparib (4 days) at the doses indicated in each experiment. For MCT1 inhibition, WPMY-1 cells were treated for 48 hours with 10 μM of AZD3965. For cJUN inhibition, WPMY-1 cells were treated for 48 hours with 10 μM of SP600125. For calpains and caspases inhibition, WPMY-1 cells were treated for 48 hours with 1-20 μM of Calpeptin (Tocris) or z-VAD-FMK (Tocris), respectively. For protein synthesis inhibition, WPMY-1 cells were treated with 50 μg/ml of cycloheximide (Sigma). Conditioned media (CM) was generated by collecting supernatant on day 3. CM was transferred to a 15 ml BD Falcon tube and centrifuged at 1300 rpm for 10 minutes. The supernatant was sterile filtered using a […] (Millex-GV) with a 10 ml syringe barrel. The samples were stored at […] for future experiments. Fractionation of the CM was achieved using Amicon Ultra centrifugal filters (3KUltracel, Millipore). The supernatant was centrifuged at 4000 rpm for 1 hour. The supernatant fraction that was >3 kDa remained above the filter and that which was <3 kDa passed through to the lower chamber. The >3-kDa fraction was resuspended in DMEM to the pre-filtration volume.
Total RNA from mouse tissues, cells and cultured organoids was extracted using the TRIZOL reagent (Invitrogen) and the RNeasy Mini Kit (QIAGEN), followed by DNase treatment. After quantification using a Nanodrop 1000 spectrophotometer (Thermo Scientific), RNA was either processed for RNA-seq or reverse-transcribed using random primers and MultiScribe Reverse Transcriptase (Applied Biosystems). Gene expression was analyzed by amplifying 20 ng of the complementary DNA using the CFX96 Real Time PCR Detection System with SYBR Green Master Mix (BioRad) and primers described in Table S1. The amplification parameters were set at 95° C. for 30 seconds, 58° C. for 30 seconds, and 72° C. for 30 seconds (40 cycles total). Gene expression values for each sample were normalized to the 18s RNA.

[3] = tested on: BRCA deficient breast tumors; assay: GSEA of RNAseq data of BRCA deficient breast tumors (GSE125206)
Text: as §1

With Cc1[nH]nc(C(F)(F)F)c1Cc1sc2c(c1C(=O)N1C[C@](C)(O)CO1)c(=O)n(C)c(=O)n2C(C)C [AZD3965] the “p62 downregulation induced by CM from PC3 cells” value ([1]; WPMY-1 cells, MCT1 inhibitor 10 μM, PC3 CM 48 h) was “impaired p62 downregulation in WPMY-1 cells treated with PC3 CM”.

In the case of Cc1cccc(-c2nn3c(c2-c2ccnc4ccc(C(N)=O)cc24)CCC3)n1 [Galunisertib], the “Olaparib-induced proliferation (EdU)” value (PC3 cells) is reported as “completely abolished the stromal proliferation induced by Olaparib”.

NC(=O)c1ccc[n+]([C@@H]2O[C@H](CO)[C@@H](O)[C@H]2O)c1 [NR, nicotinamide riboside] was tested, and the “rescue of lactate-induced reduction in p62” value ([1]; lactate-treated WPMY-1 cells, 48 h, NAD 150 μM, NR 200 μM) was “completely rescued the lactate-induced reduction in p62”.

With NC(=O)c1cccc2cn(-c3ccc([C@@H]4CCCNC4)cc3)nc12 [Niraparib] the “GSEA inflammatory signaling signatures” value [2] was “increased inflammatory related signatures” and the “GSEA signatures of stromal activation” value [2] was “showing stromal activation”.

With CN(C)CC(=O)Nc1ccc2[nH]c(=O)c3ccccc3c2c1 [PJ34] the “p62 expression (protein, SQSTM1 mRNA)” value ([1]; WPMY-1 cells, PJ34 24 h, Olaparib 48 h) was “reduced the expression of p62 in a dose-dependent manner”.

For CNC(=O)c1ccccc1Oc1nc(Nc2cc(OC)c(OC)c(OC)c2)ncc1Br [SBI-0202965], the “Olaparib-induced activation of stroma (qPCR of CAF marker ACTA2)” value (WPMY-1 cells) was “reverted the Olaparib-induced activation of stroma in a dose dependent manner; also recorded: reverts the stroma activation induced by Olaparib”.

In the case of Cn1ncnc1[C@H]1c2n[nH]c(=O)c3cc(F)cc(c23)N[C@@H]1c1ccc(F)cc1 [Talazoparib], the “GSEA inflammatory signaling signatures” value ([3]; Talazoparib vs saline) is reported as “increased inflammatory related signatures” and the “GSEA signatures of stromal activation” value ([3]; Talazoparib vs vehicle) is reported as “significant enrichment of signatures of stromal activation; also recorded: showing stromal activation”.
